Laboratory results taken from patent publication US10849336B2, “Cocoa-based food products” (IP Science Limited, priority 2011, dated 2020).
Several values for one entry are separate records, joined by “and”; a condition that tells them apart may be missing. Identical values can stand only once.

Tests used:
cholesterol = conditions: cited from earlier work
CHD patients = experiment: Clinical trial in CHD patients, daily lycopene, control chocolate or L-chocolate; assay type: in vivo, human
Protocol: Commercially available dark chocolate (Green & Black's Dark Chocolate; 85% cocoa) was melted at 70° C. The melted chocolate was mixed with tomato oleoresin, containing 15% of lycopene (Lyc-O-Mato), in the ratio of 1.57 mg of oleoresin to 1 g of the chocolate. The mixture was blended for 10 minutes and then divided into daily […] 30 g portions and cooled down to the room temperature.
Each […] 30 g chocolate portion contained 47.1 mg of tomato oleoresin or about 7 mg of lycopene.
The melting and mixing procedures were performed as described above using the same commercially available dark chocolate, but instead of tomato oleoresin, sunflower oil (Floral™) was used.
47.1 mg of tomato oleoresin was pre-dissolved in ethanol and mixed with Whey Protein as described in Richelle et al (2002) J Nutr 132 404-408, WO01/091588 and US2002/01072992. Then the mixture was placed into gelatine capsules.
18 male CHD patients, age 47-69, were recruited for this study.
Main inclusion criteria were: • elevated total serum cholesterol above 200 mg/dL and/or triglycerides above 150 mg/dL, • all patients were naive for any lipid-lowering medications, • stable clinical conditions and regimen of medications was t the last 3 months.
Secondary inclusion criteria were: • positive blood markers on inflammatory oxidative damage, IOD, >20-30 μM MDA • positive blood on an antibody inflammatory marker, Px-IgG>0.250-0.300 U/ml
All patients were randomised and divided into three equal groups of 6 patients each. Two groups receiving chocolate were blinded; the group receiving lycopene preparation along was open labelled. The period of the trial was 4 weeks.

[1] = Baseline, group mean (unlabelled last line)
[2] = Week 1, group mean (unlabelled last line)
[3] = Week 2, group mean (unlabelled last line)
[4] = Week 3, group mean (unlabelled last line)

SMILES: CC(C)=CCC/C(C)=C/C=C/C(C)=C/C=C/C(C)=C/C=C/C=C(C)/C=C/C=C(C)/C=C/C=C(\C)CCC=C(C)C [Lycopene]
- cholesterol-lowering effect (cholesterol; 13 clinical studies, daily doses 25 mg of lycopene or above): 7.55 ± 6.15 mg/dL
- effect on cholesterol or other blood lipids (cholesterol; daily consumption of 6-10 mg): no effect on cholesterol or other blood lipids
- ALT (CHD patients; [1]): 29.2 U/L
- AST (CHD patients; [1]): 37.3 U/L
- GL (CHD patients; [1]): 5.4 mmol/L
- HDL (CHD patients; [1]): 40.5 mg/dL
- IOD (CHD patients; [1]): 95 μM MDA
- LDL (CHD patients; [1]): 157 mg/dL
- Px-IgG (CHD patients; [1]): 0.762 U/ml
- TC (CHD patients; [1]): 222 mg/dL
- TG (CHD patients; [1]): 149 mg/dL
- ALT (CHD patients; Baseline, individual patient): 35 U/L and 29 U/L and 26 U/L and 25 U/L and 36 U/L and 24 U/L
- AST (CHD patients; Baseline, individual patient): 27 U/L and 49 U/L and 25 U/L and 44 U/L and 45 U/L and 34 U/L
- GL (CHD patients; Baseline, individual patient): 4.4 mmol/L and 5.9 mmol/L and 6.1 mmol/L and 6.5 mmol/L and 5.6 mmol/L and 3.8 mmol/L
- HDL (CHD patients; Baseline, individual patient): 44 mg/dL and 37 mg/dL and 40 mg/dL and 39 mg/dL and 42 mg/dL and 41 mg/dL
- IOD (CHD patients; Baseline, individual patient): 95 μM MDA and 83 μM MDA and 49 μM MDA and 101 μM MDA and 162 μM MDA and 79 μM MDA
- LDL (CHD patients; Baseline, individual patient): 161 mg/dL and 186 mg/dL and 147 mg/dL and 153 mg/dL and 159 mg/dL and 135 mg/dL
- Px-IgG (CHD patients; Baseline, individual patient): 0.803 U/ml and 0.751 U/ml and 0.743 U/ml and 0.698 U/ml and 0.811 U/ml
- TC (CHD patients; Baseline, individual patient): 219 mg/dL and 243 mg/dL and 210 mg/dL and 225 mg/dL and 231 mg/dL and 204 mg/dL
- TG (CHD patients; Baseline, individual patient): 126 mg/dL and 165 mg/dL and 157 mg/dL and 161 mg/dL and 150 mg/dL and 134 mg/dL
- ALT (CHD patients; [2]): 31.5 U/L
- AST (CHD patients; [2]): 39.7 U/L
- GL (CHD patients; [2]): 5.3 mmol/L
- HDL (CHD patients; [2]): 40.3 mg/dL
- IOD (CHD patients; [2]): 96 μM MDA
- LDL (CHD patients; [2]): 157 mg/dL
- Px-IgG (CHD patients; [2]): 0.823 U/ml
- TC (CHD patients; [2]): 221 mg/dL
- TG (CHD patients; [2]): 150 mg/dL
- ALT (CHD patients; Week 1, individual patient): 31 U/L and 33 U/L (2×) and 29 U/L (2×) and 34 U/L
- AST (CHD patients; Week 1, individual patient): 47 U/L and 46 U/L and 36 U/L and 31 U/L and 44 U/L and 34 U/L
- GL (CHD patients; Week 1, individual patient): 6.4 mmol/L and 5.7 mmol/L and 4.9 mmol/L and 3.6 mmol/L and 5.1 mmol/L and 6.1 mmol/L
- HDL (CHD patients; Week 1, individual patient): 39 mg/dL and 42 mg/dL and 40 mg/dL (2×) and 43 mg/dL and 38 mg/dL
- IOD (CHD patients; Week 1, individual patient): 99 μM MDA and 158 μM MDA and 85 μM MDA and 94 μM MDA and 81 μM MDA and 57 μM MDA
- LDL (CHD patients; Week 1, individual patient): 153 mg/dL and 160 mg/dL (2×) and 134 mg/dL and 185 mg/dL and 149 mg/dL
- Px-IgG (CHD patients; Week 1, individual patient): 0.823 U/ml and 0.746 U/ml and 0.809 U/ml and 0.867 U/ml and 0.851 U/ml and 0.839 U/ml
- TC (CHD patients; Week 1, individual patient): 224 mg/dL and 231 mg/dL and 205 mg/dL and 217 mg/dL and 241 mg/dL and 209 mg/dL
- TG (CHD patients; Week 1, individual patient): 160 mg/dL and 152 mg/dL and 137 mg/dL and 130 mg/dL and 164 mg/dL and 159 mg/dL
- ALT (CHD patients; [3]): 30.8 U/L
- AST (CHD patients; [3]): 37.5 U/L
- GL (CHD patients; [3]): 5.2 mmol/L
- HDL (CHD patients; [3]): 40.3 mg/dL
- IOD (CHD patients; [3]): 92 μM MDA
- LDL (CHD patients; [3]): 156 mg/dL
- Px-IgG (CHD patients; [3]): 0.818 U/ml
- TC (CHD patients; [3]): 221 mg/dL
- TG (CHD patients; [3]): 150 mg/dL
- ALT (CHD patients; Week 2, individual patient): 29 U/L and 31 U/L (2×) and 28 U/L and 32 U/L and 34 U/L
- AST (CHD patients; Week 2, individual patient): 43 U/L and 42 U/L and 31 U/L and 38 U/L and 41 U/L and 30 U/L
- GL (CHD patients; Week 2, individual patient): 6.6 mmol/L and 5.2 mmol/L and 5.4 mmol/L and 4.1 mmol/L and 3.9 mmol/L and 6 mmol/L
- HDL (CHD patients; Week 2, individual patient): 39 mg/dL (2×) and 41 mg/dL (2×) and 40 mg/dL and 42 mg/dL
- IOD (CHD patients; Week 2, individual patient): 95 μM MDA and 139 μM MDA and 84 μM MDA and 91 μM MDA and 75 μM MDA and 68 μM MDA
- LDL (CHD patients; Week 2, individual patient): 152 mg/dL and 158 mg/dL and 133 mg/dL and 159 mg/dL and 183 mg/dL and 150 mg/dL
- Px-IgG (CHD patients; Week 2, individual patient): 0.812 U/ml and 0.809 U/ml and 0.815 U/ml and 0.844 U/ml and 0.830 U/ml and 0.799 U/ml
- TC (CHD patients; Week 2, individual patient): 223 mg/dL and 230 mg/dL and 208 mg/dL (2×) and 216 mg/dL and 239 mg/dL
- TG (CHD patients; Week 2, individual patient): 159 mg/dL and 151 mg/dL and 138 mg/dL and 132 mg/dL and 162 mg/dL and 158 mg/dL
- ALT (CHD patients; [4]): 29.3 U/L
- AST (CHD patients; [4]): 37.8 U/L
- GL (CHD patients; [4]): 5.22 mmol/L
- HDL (CHD patients; [4]): 40.2 mg/dL
- IOD (CHD patients; [4]): 94 μM MDA
- LDL (CHD patients; [4]): 154 mg/dL
- Px-IgG (CHD patients; [4]): 0.806 U/ml
- TC (CHD patients; [4]): 219 mg/dL
- TG (CHD patients; [4]): 149 mg/dL
- ALT (CHD patients; Week 3, individual patient): 32 U/L and 29 U/L and 25 U/L and 31 U/L (2×) and 28 U/L
- AST (CHD patients; Week 3, individual patient): 42 U/L (2×) and 39 U/L and 35 U/L and 36 U/L and 33 U/L
- GL (CHD patients; Week 3, individual patient): 6.2 mmol/L and 4.8 mmol/L and 5.1 mmol/L and 5 mmol/L and 4.4 mmol/L and 5.8 mmol/L
- HDL (CHD patients; Week 3, individual patient): 39 mg/dL and 42 mg/dL and 40 mg/dL and 41 mg/dL (2×) and 38 mg/dL
- IOD (CHD patients; Week 3, individual patient): 94 μM MDA and 136 μM MDA and 85 μM MDA and 93 μM MDA and 76 μM MDA and 81 μM MDA
- LDL (CHD patients; Week 3, individual patient): 151 mg/dL and 157 mg/dL and 132 mg/dL and 155 mg/dL and 179 mg/dL and 152 mg/dL
- Px-IgG (CHD patients; Week 3, individual patient): 0.834 U/ml and 0.781 U/ml and 0.84 U/ml and 0.795 U/ml and 0.809 U/ml and 0.774 U/ml
- TC (CHD patients; Week 3, individual patient): 221 mg/dL and 227 mg/dL and 210 mg/dL and 214 mg/dL and 232 mg/dL and 211 mg/dL
- TG (CHD patients; Week 3, individual patient): 155 mg/dL and 149 mg/dL and 135 mg/dL and 142 mg/dL and 161 mg/dL and 154 mg/dL
- changes in levels of elevated cholesterol, triglycerides and markers of oxidative damage or inflammation (CHD patients; after two weeks of administration, 7 mg lycopene or 30 g control bar): no changes
